Assay results reported in patent US11963960B2 (Flash Therapeutics, LLC, priority 2020, dated 2024).
Read-outs that look alike come from different tables or passages of the source.

Target: N-terminally GST-tagged HCK (75-526) (Homo sapiens (Human), UniProt P08631)
Assay: HCK Kinase Assay (ProFluor Src-Family Kinase Assay)
Format: biochemical
Settings: 50 μM ATP
Protocol: The procedure of ProFluor Src-Family Kinase Assay (Promega, Cat. No. V1271) was then followed. To the reaction was added 5 μL Protease solution and the mixture was incubated for 60 minutes at room temperature (22-25° C.), followed by 5 μL Stabilizer solution. The fluorescence signal was read on an Envision multilabel plate reader (Perkin Elmer). The R110 was then read at an excitation wavelength of 485 nm and an emission wavelength of 530 nm. The AMC signal was read at an excitation wavelength of 355 nm and an emission wavelength of 460 nm.

[1] = HCK inhibitory activity, read-out: HCK Activity

Sequence of N-terminally GST-tagged HCK (75-526) (P08631 75-526): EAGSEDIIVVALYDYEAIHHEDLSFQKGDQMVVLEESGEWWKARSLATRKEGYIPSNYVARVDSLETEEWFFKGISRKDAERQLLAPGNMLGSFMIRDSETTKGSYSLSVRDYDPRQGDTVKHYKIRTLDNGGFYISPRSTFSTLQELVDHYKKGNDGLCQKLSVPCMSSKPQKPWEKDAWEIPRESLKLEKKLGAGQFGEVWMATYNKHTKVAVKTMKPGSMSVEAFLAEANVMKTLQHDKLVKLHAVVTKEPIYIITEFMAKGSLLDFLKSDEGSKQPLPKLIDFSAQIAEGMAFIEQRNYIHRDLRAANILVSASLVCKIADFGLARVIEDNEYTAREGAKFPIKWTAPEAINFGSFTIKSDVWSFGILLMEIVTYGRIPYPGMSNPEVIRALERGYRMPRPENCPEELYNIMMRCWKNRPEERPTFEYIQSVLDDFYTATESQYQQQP

`CN1CCOC(C2CCC(n3cc(-c4ccc(Oc5ccccc5)cc4)c4c(N)ncnc43)CC2)C1` (stereo not shown) [Example 144, 7-(4-(4-Methylmorpholin-2-yl)cyclohexyl)-5-(4-phenoxyphenyl)-7H-pyrrolo[2,3-d]pyrimidin-4-amine] gave an IC50 [1] of less than 50 nM.

With `CP1(=O)CCN([C@H]2CC[C@H](n3cc(-c4ccc(Oc5ccccc5)cc4)c4c(N)ncnc43)CC2)CC1` [Example 67, 1-((trans)-4-(4-amino-5-(4-phenoxyphenyl)-7H-pyrrolo[2,3-d]pyrimidin-7-yl)cyclohexyl)-4-methyl-1,4-azaphosphinane 4-oxide] the IC50 [1] was 50 to 250 nM.

With `CC[C@H]1CN([C@H]2CC[C@H](n3cc(-c4ccc(Oc5ccccc5)cc4)c4c(N)ncnc43)CC2)CCN1` [Example 29, 7-((trans)-4-((S)-3-ethylpiperazin-1-yl)cyclohexyl)-5-(4-phenoxyphenyl)-7H-pyrrolo[2,3-d]pyrimidin-4-amine] the IC50 [1] was 50 to 250 nM.

With `CN1CCOC(C2CCC(n3cc(-c4ccc(Oc5ccccc5)cc4)c4c(N)ncnc43)CC2)C1=O` (stereo not shown) [Example 143, 2-(4-(4-Amino-5-(4-phenoxyphenyl)-7H-pyrrolo[2,3-d]pyrimidin-7-yl)cyclohexyl)-4-methylmorpholin-3-one] the IC50 [1] was 50 to 250 nM.

`Nc1ncnc2c1c(-c1ccc(Oc3ccccc3)cc1)cn2[C@H]1CC[C@H](N2CCCC(N)C2)CC1` (stereo partly drawn) [Example 54, 7-((trans)-4-(3-aminopiperidin-1-yl)cyclohexyl)-5-(4-phenoxyphenyl)-7H-pyrrolo[2,3-d]pyrimidin-4-amine] was tested, and the IC50 [1] was less than 50 nM.

`CC1CN([C@H]2CC[C@H](n3cc(-c4ccc(Oc5ccccc5)cc4)c4c(N)ncnc43)CC2)CCN1C` (stereo partly drawn) [Example 22, 7-((trans)-4-(3,4-dimethylpiperazin-1-yl)cyclohexyl)-5-(4-phenoxyphenyl)-7H-pyrrolo[2,3-d]pyrimidin-4-amine] was tested, and the IC50 [1] was less than 50 nM.

In the case of `CN1CCN([C@H]2CC[C@H](c3cn(-c4ccc(Oc5ccccc5)cc4)c4c(N)ncnc43)CC2)CC1` [Example 177, 7-((trans)-4-(4-methylpiperazin-1-yl)cyclohexyl)-5-(4-phenoxyphenyl)-5H-pyrrolo[3,2-d]pyrimidin-4-amine], the IC50 [1] is reported as less than 50 nM.

Work on `CC(=O)NN1CCN([C@H]2CC[C@@H](n3cc(-c4ccc(Oc5ccccc5)cc4)c4c(N)ncnc43)CC2)CC1` [Example 41, N-(4-((cis)-4-(4-amino-5-(4-phenoxyphenyl)-7H-pyrrolo[2,3-d]pyrimidin-7-yl)cyclohexyl)piperazin-1-yl)acetamide] yielded an IC50 [1] of less than 50 nM.

Work on `C[C@@H]1CN([C@H]2CC[C@H](n3nc(-c4ccc(Oc5ccccc5)cc4F)c4c(N)ncnc43)CC2)CCN1` [Example 17, 3-(2-fluoro-4-phenoxyphenyl)-1-((trans)-4-((R)-3-methylpiperazin-1-yl)cyclohexyl)-1H-pyrazolo[3,4-d]pyrimidin-4-amine] yielded an IC50 (read-out: HCK IC50) of 16.5 nM and an IC50 [1] of less than 50 nM.

For `CN1CCN([C@H]2CC[C@H](n3cc(-c4ccc(Cc5ccccc5)cc4)c4c(N)ncnc43)CC2)CC1` [Example 115, 5-(4-benzylphenyl)-7-((trans)-4-(4-methylpiperazin-1-yl)cyclohexyl)-7H-pyrrolo[2,3-d]pyrimidin-4-amine], the IC50 [1] was less than 50 nM.

`Nc1ncn([C@H]2CC[C@@H](n3cc(-c4ccc(Oc5ccccc5)cc4)c4c(N)ncnc43)CC2)n1` [Example 82, 7-((cis)-4-(3-amino-1H-1,2,4-triazol-1-yl)cyclohexyl)-5-(4-phenoxyphenyl)-7H-pyrrolo[2,3-d]pyrimidin-4-amine] was tested, and the IC50 [1] was less than 50 nM.

`COc1cc(-c2cn([C@H]3CO[C@@H](C4CCN(C)CC4)OC3)c3ncnc(N)c23)ccc1Oc1ccccc1` [Example 133, 5-(3-methoxy-4-phenoxyphenyl)-7-((cis)-2-(1-methylpiperidin-4-yl)-1,3-dioxan-5-yl)-7H-pyrrolo[2,3-d]pyrimidin-4-amine] was tested, and the IC50 [1] was less than 50 nM.

`[2H]c1c([2H])c([2H])c(Oc2ccc(-c3cn([C@H]4CC[C@H](N5CCN[C@@H](C)C5)CC4)c4ncnc(N)c34)cc2)c([2H])c1[2H]` [Example 125, 7-((trans)-4-((S)-3-methylpiperazin-1-yl)cyclohexyl)-5-(4-pentadeuteriophenoxyphenyl)-7H-pyrrolo[2,3-d]pyrimidin-4-amine] was tested, and the IC50 [1] was less than 50 nM.

For `Nc1ncnc2c1c(-c1ccc(Oc3ccccc3)cc1)cn2[C@H]1CC[C@@H](N2CCN3CCC[C@H]3C2)CC1` [Example 47, 7-((cis)-4-((S)-hexahydropyrrolo[1,2-a]pyrazin-2(1H)-yl)cyclohexyl)-5-(4-phenoxyphenyl)-7H-pyrrolo[2,3-d]pyrimidin-4-amine], the IC50 [1] was 50 to 250 nM.

`Nc1ncnc2c1c(-c1ccc(Oc3ccccc3)cc1)cn2C1CCC2(CC1)CCN(CCCCO)CC2` [Example 140, 4-(9-(4-amino-5-(4-phenoxyphenyl)-7H-pyrrolo[2,3-d]pyrimidin-7-yl)-3-azaspiro[5.5]undecan-3-yl)butan-1-ol] gave an IC50 [1] of 50 to 250 nM.

For `CN1CCN([C@H]2CC[C@@H](c3cn(-c4ccc(Oc5ccccc5)cc4)c4c(N)ncnc43)CC2)CC1` [Example 176, 7-((cis)-4-(4-methylpiperazin-1-yl)cyclohexyl)-5-(4-phenoxyphenyl)-5H-pyrrolo[3,2-d]pyrimidin-4-amine], the IC50 [1] was 250 to 10000 nM.

In the case of `COc1cc(-c2nn([C@H]3CC[C@H](N4CCN(C)CC4)CC3)c3ncnc(N)c23)ccc1NC(=O)Nc1cc(C(C)(C)C)on1` [Example 123, 1-(4-(4-amino-1-((trans)-4-(4-methylpiperazin-1-yl)cyclohexyl)-1H-pyrazolo[3,4-d]pyrimidin-3-yl)-2-methoxyphenyl)-3-(5-(tert-butyl)isoxazol-3-yl)urea], the IC50 [1] is reported as less than 50 nM.

In the case of `CCN1CCN([C@H]2CC[C@H](n3nc(-c4ccc(Oc5ccccc5)cc4F)c4c(N)ncnc43)CC2)CC1` [Example 9, 1-((trans)-4-(4-ethylpiperazin-1-yl)cyclohexyl)-3-(2-fluoro-4-phenoxyphenyl)-1H-pyrazolo[3,4-d]pyrimidin-4-amine], the IC50 [1] is reported as less than 50 nM.

Work on `C[C@H]1CN([C@H]2CC[C@@H](c3nc(-c4ccc(Oc5ccccc5)cc4F)c4c(N)ncnn43)CC2)CCN1` [Example 166, 5-(2-fluoro-4-phenoxyphenyl)-7-((cis)-4-((S)-3-methylpiperazin-1-yl)cyclohexyl)imidazo[5,1-f][1,2,4]triazin-4-amine] yielded an IC50 [1] of 250 to 10000 nM.

`CN1CCN([C@H]2CC[C@H](n3cc(-c4ccc(Oc5ccccc5)cc4)c4c(O)ncnc43)CC2)CC1` [Example 87, 7-((trans)-4-(4-Methylpiperazin-1-yl)cyclohexyl)-5-(4-phenoxyphenyl)-7H-pyrrolo[2,3-d]pyrimidin-4-ol] showed an IC50 [1] of less than 50 nM.

`CN1CCN([C@H]2CC[C@H](n3cc(-c4ccc(Oc5ccccc5C#N)cc4)c4c(N)ncnc43)CC2)CC1` [Example 112, 2-(4-(4-amino-7-((trans)-4-(4-methylpiperazin-1-yl)cyclohexyl)-7H-pyrrolo[2,3-d]pyrimidin-5-yl)phenoxy)benzonitrile] was tested, and the IC50 [1] was less than 50 nM.

`Nc1ncnc2c1c(-c1ccc(Oc3ccccc3)cc1)cn2[C@H]1CC[C@@H](N2CCCC(N)C2)CC1` (stereo partly drawn) [Example 55, 7-((cis)-4-(3-aminopiperidin-1-yl)cyclohexyl)-5-(4-phenoxyphenyl)-7H-pyrrolo[2,3-d]pyrimidin-4-amine] gave an IC50 [1] of less than 50 nM.

Compound `COc1cc(-c2cn(C3CCN(C4CCNCC4)CC3)c3ncnc(N)c23)ccc1Oc1ccccc1` [Example 150, 7-([1,4′-bipiperidin]-4-yl)-5-(3-methoxy-4-phenoxyphenyl)-7H-pyrrolo[2,3-d]pyrimidin-4-amine] has an IC50 [1] of less than 50 nM.

In the case of `Nc1ncnc2c1c(-c1ccc(Oc3ccccc3)cc1)cn2[C@H]1CC[C@H](N2CC(N)C2)CC1` [Example 77, 7-((trans)-4-(3-aminoazetidin-1-yl)cyclohexyl)-5-(4-phenoxyphenyl)-7H-pyrrolo[2,3-d]pyrimidin-4-amine], the IC50 [1] is reported as less than 50 nM.

In the case of `CN1CCN(CC2(O)CCC(n3cc(-c4ccc(Oc5ccccc5)cc4)c4c(N)ncnc43)CC2)CC1` (stereo not shown) [Example 100, 4-(4-Amino-5-(4-phenoxyphenyl)-7H-pyrrolo[2,3-d]pyrimidin-7-yl)-1-((4-methylpiperazin-1-yl)methyl)cyclohexanol], the IC50 [1] is reported as 50 to 250 nM.

`C[C@H]1CN([C@H]2CC[C@H](n3cc(-c4ccc(Oc5ccccc5)cc4F)c4c(N)ncnc43)CC2)CCN1` [Example 126, 5-(2-fluoro-4-phenoxyphenyl)-7-((trans)-4-((S)-3-methylpiperazin-1-yl)cyclohexyl)-7H-pyrrolo[2,3-d]pyrimidin-4-amine] gave an IC50 [1] of less than 50 nM.

For `Nc1ncnc2c1c(-c1ccc(Oc3ccccc3)cc1)cn2[C@H]1CC[C@@H](N2CCN(N)CC2)CC1` [Example 39, 7-((cis)-4-(4-aminopiperazin-1-yl)cyclohexyl)-5-(4-phenoxyphenyl)-7H-pyrrolo[2,3-d]pyrimidin-4-amine], the IC50 [1] was less than 50 nM.

For `Nc1ncnc2c1c(-c1ccc(Oc3ccccc3)cc1)cn2[C@H]1CC[C@H](N2CCN3C(=O)CCC3C2)CC1` (stereo partly drawn) [Example 42, 2-((trans)-4-(4-amino-5-(4-phenoxyphenyl)-7H-pyrrolo[2,3-d]pyrimidin-7-yl)cyclohexyl)hexahydropyrrolo[1,2-a]pyrazin-6(2H)-one], the IC50 [1] was 50 to 250 nM.

With `CC1(N)CCN([C@H]2CC[C@@H](n3cc(-c4ccc(Oc5ccccc5)cc4)c4c(N)ncnc43)CC2)CC1` [Example 51, 7-((cis)-4-(4-amino-4-methylpiperidin-1-yl)cyclohexyl)-5-(4-phenoxyphenyl)-7H pyrrolo[2,3-d]pyrimidin-4-amine] the IC50 [1] was less than 50 nM.

`Nc1ncnc2c1c(-c1ccc(Oc3ccccc3)cc1)cn2[C@H]1CC[C@@H](N2CCS(=O)(=O)CC2)CC1` [Example 66, 4-((cis)-4-(4-amino-5-(4-phenoxyphenyl)-7H-pyrrolo[2,3-d]pyrimidin-7-yl)cyclohexyl)thiomorpholine 1,1-dioxide] was tested, and the IC50 [1] was 50 to 250 nM.
